{"source": "paper PMC10653080", "about": "“Intermolecular Interactions, Solute Descriptors, and Partition Properties of Neutral Per- and Polyfluoroalkyl Substances (PFAS)” (Environmental Science & Technology, 2023)", "key": {"[1]": {"parameters": "method as in PMID 18800530", "details": "25 °C; batch partition method (BP); ref [4]; cited from earlier work"}, "[2]": {"assay": "PP-LFER solute descriptor determination from GC retention and partition coefficient data", "type": "physicochemical", "details": "for Solute descriptor L (logarithmic hexadecane/air partition coefficient, KHxd/air): 25 °C, updated in the iterative calculation; for Solute descriptor S (dipolarity/polarizability parameter): final adjusted value, shared within a PFAS group", "from_the_text": "The GC columns used were, from low to high polarity, HP-5ms Ultra Inert (poly[5% phenyl/95% methyl]siloxane equivalent; Agilent Technologies, Santa Clara, CA), DB-200 (poly[35% trifluoropropyl/65% methyl]siloxane; Agilent Technologies), DB-225ms (poly[50% cyanopropylphenyl/50% methyl]siloxane equivalent; Agilent Technologies), and SolGel-WAX (polyethylene glycol; Trajan, Ringwood, Australia). Column dimensions were all 30 m × 0.25 mm i.d. with a coating thickness of 0.25 μm.\nThe method for GC retention time measurements follows that of a previous study.[18] Briefly, a 7890A/5975C GC/MS instrument (Agilent Technologies) equipped with an MPS2 autosampler and CIS4 injector (Gerstel, Mülheim an der Ruhr, Germany) was used for all measurements. For each column, isothermal retention times were measured at four temperatures in the range of 30–120 °C to cover all target compounds. The temperature at the injector and transfer line was fixed at 120 °C. The carrier gas was He at a flow rate of 1.2 mL/min. Compounds were introduced into the GC by injecting either headspace (100–250 μL) above the pure compound or solution in acetone (1 μL). Split injections were performed with a split ratio of 20–250. Column dead time (t0) was determined by injecting air and measuring Ar (m/z 40). From the measured retention time (t), the retention factor (k) was calculated as k = (t–t0)/t0. Measurements with t < t0 + 0.1 min were considered too short and discarded. For each column and temperature, k values were obtained for 29–52 PFAS and 29–48 reference compounds.\nThe standard procedure for solute descriptor determination was as follows. First, the system parameters in eq 1 were calibrated for each column (or partition system) and temperature by MLR using log k (or log K) data and solute descriptors for reference compounds. Dimethylformamide, 1-pentylamine, dimethylsulfoxide, and dodecamethylcyclohexasiloxane (D6) were removed from the log k data sets, because they frequently appeared as outliers (>3 SD) of the PP-LFER model fit. Reference data sets for hexadecane/water partition coefficients (KHxd/w),[21]Kow,[22] and octanol/air partition coefficients (Koa)[23] were taken from the cited references and amended with data for organosilicon compounds.[24],[25] Similar to PFAS, organosilicon compounds have weak van der Waals interaction properties[9] and it may be beneficial to include them in reference data sets. The solute descriptors for PFAS were then back-calculated by using the calibrated PP-LFER equations. Of the five descriptors, V can be calculated from the molecular structure[26] (note: the fragment value for F from Goss et al.[11] was used), and L was available for the PFAS studied.[18] Thus, the left side of eq 2 was known, and MLR was performed to obtain S, A, and B on the right side. [drawing 2] 2 To determine the three descriptors, a minimum of three k and K data are required for a given PFAS compound. The data used here were: k measured for 60 PFAS in this study, KHxd/w for 21 PFAS,[5]Kow for 12 PFAS (see the Results and Discussion section), and Koa for 3 PFAS.[11]\nKey to the accurate determination of the polar interaction descriptors is the availability of K data for partition systems with water as a partition phase because water is a strong H-bond donor and acceptor phase and thus the corresponding K values are sensitive to the H-bonding properties of the solute.[27] In particular, at least one solvent/water or air/water partition coefficient is required to determine B because there is no commonly used GC phase that is a significant H-bond donor. In the data set, KHxd/w is sensitive to both A and B and Kow is sensitive to B. However, KHxd/w and Kow data are not available for all PFAS. To increase the number of PFAS for which descriptors can be determined, the following assumptions were made. […]"}, "[3]": {"assay": "Octanol/water partition coefficient (Kow), shared-headspace method", "type": "physicochemical", "details": "25 °C; shared-headspace method (SH)", "description": "(§1) Kow was measured for nine PFAS (Table 2) to supplement the data set for descriptor determination. The nine PFAS were selected based on measurement feasibility and structural diversity. The shared-headspace or batch partition method was used as described previously.[5] Details of the methods are given in SI-1."}, "[4]": {"assay": "Octanol/water partition coefficient (Kow), batch partition method", "type": "physicochemical", "details": "25 °C; batch partition method (BP)", "description": "as §1"}}, "data": [{"smiles": "OCCC(F)(F)C(F)(F)C(F)(F)C(F)(F)F", "note": "[4:2 FTOH, 1H,1H,2H,2H-Perfluorohexan-1-ol]", "values": [{"measurement": "Log Kow, Mean ± SD", "setting": "[1]", "value": "3.30 ± 0.04"}, {"measurement": "Solute descriptor L (logarithmic hexadecane/air partition coefficient, KHxd/air)", "setting": "[2]", "value": 2.421}, {"measurement": "Solute descriptor S (dipolarity/polarizability parameter)", "setting": "[2]", "value": 0.35}]}, {"smiles": "OCCC(F)(F)C(F)(F)C(F)(F)C(F)(F)C(F)(F)C(F)(F)F", "note": "[6:2 FTOH, 1H,1H,2H,2H-Perfluorooctan-1-ol]", "values": [{"measurement": "Log Kow, Mean ± SD", "setting": "[1]", "value": "4.54 ± 0.01"}, {"measurement": "Solute descriptor L (logarithmic hexadecane/air partition coefficient, KHxd/air)", "setting": "[2]", "value": 2.997}, {"measurement": "Solute descriptor S (dipolarity/polarizability parameter)", "setting": "[2]", "value": 0.35}]}, {"smiles": "OCC(F)(F)C(F)(F)C(F)(F)C(F)(F)C(F)(F)C(F)(F)C(F)(F)F", "note": "[7:1 FTOH, 1H,1H-Perfluorooctan-1-ol]", "values": [{"measurement": "Measured Log Kow, Mean ± SD", "setting": "[3]", "value": "5.01 ± 0.02"}, {"measurement": "Solute descriptor L (logarithmic hexadecane/air partition coefficient, KHxd/air)", "setting": "[2]", "value": 2.715}, {"measurement": "Solute descriptor S (dipolarity/polarizability parameter)", "setting": "[2]", "value": 0.30}]}, {"smiles": "OCCC(F)(F)C(F)(F)C(F)(F)C(F)(F)C(F)(F)C(F)(F)C(F)(F)C(F)(F)F", "note": "[8:2 FTOH, 1H,1H,2H,2H-Perfluorodecan-1-ol]", "values": [{"measurement": "Log Kow, Mean ± SD", "setting": "[1]", "value": "5.58 ± 0.06"}, {"measurement": "Solute descriptor L (logarithmic hexadecane/air partition coefficient, KHxd/air)", "setting": "[2]", "value": 3.554}, {"measurement": "Solute descriptor S (dipolarity/polarizability parameter)", "setting": "[2]", "value": 0.35}]}, {"smiles": "CNS(=O)(=O)C(F)(F)C(F)(F)C(F)(F)C(F)(F)F", "note": "[MeFBSA, N-Methylperfluorobutanesulfonamide]", "values": [{"measurement": "Measured Log Kow, Mean ± SD", "setting": "[4]", "value": "3.51 ± 0.00"}, {"measurement": "Solute descriptor L (logarithmic hexadecane/air partition coefficient, KHxd/air)", "setting": "[2]", "value": 3.566}, {"measurement": "Solute descriptor S (dipolarity/polarizability parameter)", "setting": "[2]", "value": 0.88}]}, {"smiles": "CN(CCO)S(=O)(=O)C(F)(F)C(F)(F)C(F)(F)C(F)(F)F", "note": "[MeFBSE, N-Methylperfluorobutanesulfonamidoethanol]", "values": [{"measurement": "Measured Log Kow, Mean ± SD", "setting": "[4]", "value": "3.11 ± 0.04"}, {"measurement": "Solute descriptor L (logarithmic hexadecane/air partition coefficient, KHxd/air)", "setting": "[2]", "value": 4.769}, {"measurement": "Solute descriptor S (dipolarity/polarizability parameter)", "setting": "[2]", "value": 1.00}]}, {"smiles": "NS(=O)(=O)C(F)(F)C(F)(F)C(F)(F)C(F)(F)F", "note": "[PFBSA, Perfluorobutanesulfonamide]", "values": [{"measurement": "Measured Log Kow, Mean ± SD", "setting": "[4]", "value": "2.85 ± 0.02"}, {"measurement": "Solute descriptor L (logarithmic hexadecane/air partition coefficient, KHxd/air)", "setting": "[2]", "value": 3.607}, {"measurement": "Solute descriptor S (dipolarity/polarizability parameter)", "setting": "[2]", "value": 0.96}]}]}
